Data as given in US20070048355A1, “Non-irritating solvent-borne polymeric coatings for application to the skin” (priority 2005, published 2007).

System: freshly abraided skin on a finger knuckle
Assay: standard sting test on abraded finger knuckle skin
Format: in vivo, human
Conditions: for stinging of aliphatic hydrocarbon diluent solvents (in words): neat alkane on abraded skin
Source text: The preparations described above were applied to skin that had been carefully abraided shortly before testing to determine whether the stinging and discomfort caused by collodion application could be suppressed by one or more of these agents. The procedure used was to manually scour a finger knuckle using 100 grit garnet sandpaper just to the point of slight bleeding, and then allowing the skin to rest a minute or so until any discomfort, i.e., sensation of irritation, pain or heat, had disappeared prior to challenging the abrasion with a potential chemical irritant. The resultant stinging sensation was compared to that produced with the unmodified commercial New Skin™ collodion product (the “control”). Sting (also termed and described as “burning sensation”) was rated on a five level scale as follows: (−) no sting, (+/−) barely detectable sting, (+) slight sting, (++) moderate sting, (+++) strong sting. […] This method of testing and scoring the level or magnitude of the stinging sensation is referred to herein as the “sting test” or “standard sting test.”
Using the “standard sting test” described above, and similarly abraded skin on a finger knuckle, individual collodion ingredients were tested neat (undiluted). Accordingly, a droplet or two of the mixture or the chemical ingredient was placed on freshly abraided skin.
Several new chemicals and solvents of potential interest were tested, and others that were formerly tested (all in their neat state) were re-tested using the standard sting test procedure and accompanying scoring system described above. Applicant's strategy behind this testing was to find a true solvent or alternatively, a combination of true solvent and either co-solvent or diluent, that would have sufficient volatility to allow rapid drying of a collodion coating without causing stinging when applied to the skin.

[1] = additional testing and re-testing of chemicals and solvents in their neat state, standard sting test
[2] = individual collodion ingredients tested neat (undiluted), a droplet or two on freshly abraided skin

Compound	LEVEL OF STING [1]	other results
CC(C)=O [Acetone]	+++	
CCCCCOC(C)=O [Amyl Acetate (mixed isomers), Amyl Acetate]	+/−	LEVEL OF STING [2]: +/−
CCOC(C)=O [Ethyl Acetate]		LEVEL OF STING (in vivo): +++
CCO [Ethyl Alcohol]	+++	LEVEL OF STING [2]: +++
CC(C)O [Isopropyl Alcohol]	++	LEVEL OF STING [2]: ++
CC(=O)OC(C)C [Isopropyl acetate]	+	
COC(C)=O [Methyl acetate]	+++	
CO [Methyl alcohol]	+++	
CCC(C)=O [Methyl ethyl ketone]	+++	
CC(CO)CO [Methyl propanediol]	+	
CCCC(C)=O [Methyl propyl ketone]	++	
CC(C)CO [isobutyl alcohol]	+	
CCCCOC(C)=O [n-Butyl Acetate]	+/−	LEVEL OF STING [2]: +/−
CCCCCCC [n-Heptane]	−	stinging of aliphatic hydrocarbon diluent solvents (in words): none of the aliphatic hydrocarbon diluent solvents that were tested caused any stinging
CCCCCC [n-Hexane]	−	stinging of aliphatic hydrocarbon diluent solvents (in words): none of the aliphatic hydrocarbon diluent solvents that were tested caused any stinging
CCCCCCCC [n-Octane]	−	stinging of aliphatic hydrocarbon diluent solvents (in words): none of the aliphatic hydrocarbon diluent solvents that were tested caused any stinging
CCCOC(C)=O [n-Propyl acetate]	+	
CCCCCO [n-amyl alcohol]	+	
CCCCC [n-pentane]		stinging of aliphatic hydrocarbon diluent solvents (in words): none of the aliphatic hydrocarbon diluent solvents that were tested caused any stinging
CC(=O)OC(C)(C)C [tert-Butyl acetate]	+/−	
Castor Oil		LEVEL OF STING (in vivo): −
Isohexane (e.g., 2-methyl pentane and other isomers)	−	
